Laboratory results as given in article PMC5274652, “Antagonizing Retinoic Acid Receptors Increases Myeloid Cell Production by Cultured Human Hematopoietic Stem Cells” (Archivum Immunologiae et Therapiae Experimentalis, 2016).

What was measured:
[1] = test system: zebra fish embryos; set-up: method as in Wai et al. 2015; conditions: 10 nM, ref Wai et al. 2015; cited from earlier work
[2] = target: T1, RARα (Homo sapiens, UniProt P10276)
T1 sequence (P10276 183-417 limits assumed): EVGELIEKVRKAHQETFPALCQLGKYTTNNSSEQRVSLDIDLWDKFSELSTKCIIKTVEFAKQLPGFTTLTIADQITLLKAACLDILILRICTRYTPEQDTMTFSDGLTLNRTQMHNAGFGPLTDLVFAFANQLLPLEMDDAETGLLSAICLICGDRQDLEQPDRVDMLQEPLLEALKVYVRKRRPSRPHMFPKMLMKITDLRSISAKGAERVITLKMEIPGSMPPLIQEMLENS
From the text: (§1) For transactivation studies, we used CV-1 kidney fibroblast cells and LNCaP prostate adenocarcinoma cells that can be readily and reproducibly transfected with plasmids and reporters. Transactivation assays using CV-1 cells were undertaken essentially as described previously (Nagpal et al. [1995]). Briefly, CV-1 cells were transiently transfected with a plasmid-containing ERE-tk-Luc promoter-reporter construct using Lipofectamine as described in the manufacturer’s protocol (Fisher Scientific, Loughborough, UK). ERE-tk-Luc transcript comprises a luciferase reporter under control of an estrogen receptor response element. The cells were also transiently transfected with expression vector encoding a fusion protein containing the ligand-binding domain of RARα, RARβ, or RARγ fused to an estrogen receptor DNA-binding domain. Twenty-four hours after transfection, the cells were treated with retinoids under test for 16 h in culture medium-containing 2.5 % charcoal-treated FBS and lysed for determination of luciferase and β-galactosidase activities. Luciferase activity was measured using the Dual-Luciferase Reporter 100 Assay System (Promega, Southampton, UK), and β-galactosidase activity was determined by colorimetric assay. The reporter activity was normalized against β-galactosidase activity. […]

[3] = target: T2, RARβ (Homo sapiens, UniProt P10826); experiment: Retinoid receptor transactivation assay in transfected CV-1 cells, RARβ; format: cell-based
T2 construct: expressed in transfected cells; host or cells: CV-1 kidney fibroblast cells
T2 sequence (P10826 183-417 limits assumed): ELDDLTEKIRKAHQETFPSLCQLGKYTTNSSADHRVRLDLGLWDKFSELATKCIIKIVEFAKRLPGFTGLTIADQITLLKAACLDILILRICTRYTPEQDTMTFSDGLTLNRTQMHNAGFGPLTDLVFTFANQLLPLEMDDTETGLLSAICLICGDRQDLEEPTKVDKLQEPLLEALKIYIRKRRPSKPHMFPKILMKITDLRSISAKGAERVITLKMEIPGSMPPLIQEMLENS
From the text: as §1

[4] = target: T3, RARγ (Homo sapiens, UniProt P13631); experiment: Retinoid receptor transactivation assay in transfected CV-1 cells, RARγ; format: cell-based
T3 construct: expressed in transfected cells; host or cells: CV-1 kidney fibroblast cells
T3 sequence (P13631 185-419 limits assumed): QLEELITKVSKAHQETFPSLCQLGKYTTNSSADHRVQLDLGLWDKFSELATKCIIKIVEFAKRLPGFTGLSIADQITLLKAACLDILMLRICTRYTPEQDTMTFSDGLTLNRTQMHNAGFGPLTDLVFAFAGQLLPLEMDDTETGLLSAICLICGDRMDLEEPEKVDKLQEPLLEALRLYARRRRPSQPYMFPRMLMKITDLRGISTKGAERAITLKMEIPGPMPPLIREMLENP
From the text: as §1

[5] = test system: NB-4 cells; experiment: Differentiation of NB-4 cells (CD11b/CD14 flow cytometry); format: cell-based, human; conditions: NB-4 cells, 96 h
Protocol: (§2) NB-4 and KG1 cells were obtained from the German Resource Center for Biological Material (DSMZ GmbH, Braunschweig, Germany). The cells were grown in RPMI-1640 medium supplemented with 10 % fetal bovine serum (FBS), 100 U/ml penicillin, and 100 µg/ml streptomycin (Sigma, St Louis, MO, USA). Cells were grown at 37 °C in 5 % CO2.
(§3) The expression of differentiation markers at the cell surface was determined by flow cytometry. Differentiation of NB-4 and KG1 cells was measured by staining using the monoclonal antibodies CD11b-FITC and CD14-PE and appropriately labeled isotype controls (all from ImmunoTools, Friesoythe, Germany). Differentiation of human CD34^+ve cells was measured by triple-color staining using various cocktails of phycoerythrin-, fluorescein isothyocyanate-, and PerCP-monoclonal antibodies (from Becton–Dickinson, San Jose, CA, USA). The markers used to identify cell populations were as follows: CD45^+ve leukocytes; CD34^+ve/CD133^+ve HSCs; CD33^+ve/CD13^+ve immature myeloid; CD117^+ve myeloblasts and promyelocytes; CD11b^+ve/CD15^+ve mature myeloid; CD11b^+ve/CD65^+ve neutrophils; CD11b^+ve/CD14^+ve monocytes; glycophorin^+ve A erythroid cells; CD61^+ve megakaryoblasts and platelets; CD2^+ve/CD5^+ve/CD7^+ve T cells and NK cells; CD56^+ve NK cells; CD19^+ve/CD20^+ve B cells; and CD10^+ve B lymphocyte progenitors; and present on mature neutrophils and DR^+ve progenitors and present on mature monocytes. The cells were stained with 1 µl of the fluorescently labeled antibody (or the appropriate control immunoglobulin) for 1 h on ice. Next, they were washed with ice-cold phosphate-buffered saline (PBS) and suspended in 0.5 ml PBS supplemented with 0.1 % bovine serum albumin (Sigma, St Louis, MO, USA) prior to analysis on FACS Calibur flow cytometer (Becton–Dickinson, San Jose, CA, USA). The acquisition parameters were set for an isotype control. Cells were analyzed using a FACSCalibur, and data analysis was performed using the CellQuest Pro software (Becton–Dickinson, San Jose, CA, USA).

[6] = test system: KG1 cells; experiment: Differentiation of KG1 cells (CD11b/CD14 flow cytometry); format: cell-based, human; conditions: KG1 cells, 1 μM combined with 10 nM 1,25D, 96 h
Protocol: as §2, §3

SMILES | effect on stem cell populations and development [1] | concentration required to activate RARα (reporter assays) ([2]; discussion, order of magnitude) | ATRA concentration at which maximal effect on RARα transactivation is observed ([2]; transfected CV-1 cells) | ATRA concentration of maximal activation, RARβ [3] | concentration at which RARγ is activated (reporter assays) ([4]; discussion, order of magnitude) | ATRA concentration of maximal activation, RARγ ([4]; transfected CV-1 cells) | CD11b+ve/CD14+ve cells (monocyte differentiation) ([5]; 1 μM combined with 10 nM 1,25D) | CD11b+ve/CD14+ve cells (monocyte differentiation) ([5]; 1 μM, alone) | CD11b+ve/CD14+ve cells (monocyte differentiation) [6] [%]
CC1(C)CCC(C)(C)c2cc(/C(=N\O)c3cc4cc(C(=O)O)ccc4[nH]3)ccc21 [AGN205327] | Stem cell populations were maintained at the expense of the development of bones and neural ganglia |  |  |  |  |  |  |  | 
CC1=C(/C=C/C(C)=C/C=C/C(C)=C/C(=O)O)C(C)(C)CCC1 [ATRA, all-trans retinoic acid] |  | ~10^−8 M | ~10^−7 M | ~ 5 × 10^−9 M | ~10^−10 M | ~ 5 × 10^−9 M | ~ 36% | ~ 10% | 26
